This data set in a line: delta pKa difference between tyrosine kinase inhibitor and anti-oxidative acids. It counts as physicochemical. Conditions: between the tyrosine kinase inhibitor and anti-oxidative acids; more than 3 = salt, less than 3 = co-crystal (FDA draft guidelines).

SMILES strings stand for the structures.

Consider two compounds from US9895377B2, “Solid forms of tyrosine kinase inhibitors, process for the preparation and their pharmaceutical composition thereof” (LAURUS LABS LIMITED, priority 2012, dated 2018).

For the compound `COc1cc2ncnc(Nc3ccc(F)c(Cl)c3)c2cc1OCCCN1CCOCC1` [gefitinib, Gefitinib], the “delta pKa difference” value is given as “less than 3”.

With `Cc1ccc(NC(=O)c2ccc(CN3CCN(C)CC3)cc2)cc1Nc1nccc(-c2cccnc2)n1` [imatinib, Imatinib], the “delta pKa difference” value is reported as “more than 3”.
